Series [1] can be described thus: Aqueous solubility of the compound in PBS buffer at pH 7.4 at 200 uM incubated for 2 hrs under shaking condition by miniaturized shake flask method. It is filed as physicochemical.
Series [2] can be described thus: Intrinsic clearance in mouse liver microsomes at 1 uM measured for 60 mins by LC-MS/MS analysis. The class given is ADME, Microsome. The note with it: read-out: CLH.
The nature of series [3]: Intrinsic clearance in human liver microsomes at 1 uM measured for 60 mins by LC-MS/MS analysis. It is filed as ADME, Microsome. The note with it: read-out: CLH.
Series [4] in a line: Cytotoxicity against human HepG2 cells assessed as inhibition of cell growth incubated for 48 hrs by CellTiter-Glo luminescence assay. It is filed as toxicity, cell-based.
Series [5] can be described thus: Toxicity in Balb/c mouse infected with asexual blood stage of Plasmodium berghei ANKA assessed as body weight at 25 mg/kg, po qd administered at 2 hrs post-infection on day 0 and then on days 1,2 and 3. The class given is organism-based. The note with it: in vivo, 96 h, time 4 day.
Series [6] is described as follows: Lipophilicity, elogD of the compound in 1-Octanol/PBS at pH 7.4 at 7.5 uM incubated for 2 hrs by miniaturized shake flask method. The class given is physicochemical.
Series [7] relates to Plasmodium berghei. Put plainly: Antimalarial activity against asexual blood stage of Plasmodium berghei ANKA infected in Balb/c mouse assessed as reduction in parasitemia at 25 mg/kg, po qd administered at 2 hrs post-infection on day 0 and then on days 1,2 and 3 post-infection and measured on day 5 to 7 post-infection by peter's test relative to control. The class given is functional. The note with it: time 6-8 day.

Series [8] in a line: Intrinsic clearance in rat hepatocytes at 1 uM measured per million cells for 90 mins by LC-MS/MS analysis. The class given is ADME, cell-based, Hepatocyte. The note with it: read-out: CLH.
Another series deals with Plasmodium falciparum. Put plainly: Antiplasmodial activity against asexual blood stage of Plasmodium falciparum 3D7 assessed as inhibition of parasite growth incubated for 72 hrs by LDH assay. It is filed as functional, organism-based. The note with it: 3D7, 72 h.
Series [9] deals with Plasmodium berghei. Put plainly: Antimalarial activity against asexual blood stage of Plasmodium berghei ANKA infected in Balb/c mouse assessed as reduction in parasitemia at 25 mg/kg, po qd administered at 2 hrs post-infection on day 0 and then on days 1,2 and 3 post-infection and measured on day 2 to 4 post-infection. The note with it: time 3-5 day. It is filed as functional, organism-based.

Series [10] can be described thus: Toxicity in Balb/c mouse infected with asexual blood stage of Plasmodium berghei ANKA assessed as adverse effects at 25 mg/kg, po administered at 2 hrs post-infection on day 0 and then on days 1,2 and 3. The class given is organism-based. The note with it: in vivo, 96 h, time 4 day.

Converted amounts (≈) assume the structure as drawn. The source made the active and inactive calls. The rule behind the calls is not given here.

In series [1], `Cc1nn(C(C)C)c2nc(C3CC3)cc(C(=O)N3CCOc4ccncc43)c12` had a solubility (thermodynamic) at 2 h, 200 µM of 199 µM (≈ 75.1 µg/mL). For the same molecule, the microsomal CLint at 1 µM was 323 µL/min/mg in series [2] and 27 µL/min/mg in series [3]. The CC50 at 48 h in series [4] amounted to 17.6 µM. The Activity result in series [5] and in series [10] was “Non-Toxic” in each case. In [6], this molecule yielded a logD at 2 h, 7.5 µM of 4.5. The inhibition in vivo at 25 mg/kg with Plasmodium berghei [7] was around 50%. For the same molecule, the hepatocyte CLint at 1 µM in [8] came to 30 µL/min/1e6 cells. In addition, the EC50 in the series with Plasmodium falciparum is 0.019 µM. Moreover, in the series on Plasmodium berghei [9], the outcome was inactive.

For the origin of these results see ChEMBL document CHEMBL5608197, “Optimization of pyrazolopyridine 4-carboxamides with potent antimalarial activity for which resistance is associated with the P. falciparum transporter ABCI3” (Eur J Med Chem, 2024).
